The target in the assay is T1, Androgen Receptor (Homo sapiens, UniProt P10275).
T1 construct: endogenous in cells; host or cells: VCaP cells
T1 sequence (P10275 1-920): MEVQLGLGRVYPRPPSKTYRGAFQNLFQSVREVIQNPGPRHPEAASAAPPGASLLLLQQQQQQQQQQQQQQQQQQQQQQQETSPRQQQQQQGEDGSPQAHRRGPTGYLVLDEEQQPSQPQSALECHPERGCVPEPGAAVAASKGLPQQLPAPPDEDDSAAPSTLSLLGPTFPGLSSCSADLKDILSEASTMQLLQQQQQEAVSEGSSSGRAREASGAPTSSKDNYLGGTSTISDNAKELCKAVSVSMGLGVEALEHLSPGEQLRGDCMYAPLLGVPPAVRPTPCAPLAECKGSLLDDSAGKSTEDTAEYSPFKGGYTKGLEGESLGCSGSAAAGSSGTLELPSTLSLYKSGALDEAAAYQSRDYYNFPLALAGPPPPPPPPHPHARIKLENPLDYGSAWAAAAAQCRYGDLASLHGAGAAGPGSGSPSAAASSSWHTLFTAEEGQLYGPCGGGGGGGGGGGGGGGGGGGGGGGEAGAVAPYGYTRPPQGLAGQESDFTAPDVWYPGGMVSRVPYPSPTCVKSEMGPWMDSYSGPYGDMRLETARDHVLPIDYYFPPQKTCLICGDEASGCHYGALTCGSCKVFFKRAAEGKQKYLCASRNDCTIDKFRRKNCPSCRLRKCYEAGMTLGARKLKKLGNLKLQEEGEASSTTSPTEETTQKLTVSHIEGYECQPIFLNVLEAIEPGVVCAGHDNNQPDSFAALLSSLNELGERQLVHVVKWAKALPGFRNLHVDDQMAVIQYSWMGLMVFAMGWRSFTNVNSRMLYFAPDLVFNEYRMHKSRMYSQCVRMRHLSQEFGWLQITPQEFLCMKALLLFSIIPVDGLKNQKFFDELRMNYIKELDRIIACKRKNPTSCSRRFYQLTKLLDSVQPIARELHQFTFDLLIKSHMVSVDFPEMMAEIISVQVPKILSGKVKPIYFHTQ
Put plainly: Androgen Receptor ELISA assay (PathScan AR ELISA) in VCaP cells: AR degradation, Dmax and DC50. The following applies: for DC50: read-out: VCaP DC50; for Dmax: VCaP, read-out: VCaP Dmax (%). The assay is classed as cell-based. In a few lines: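 After 24 h exposure of VCaP cells (charcoal-stripped serum, 0.1 nM R1881 agonist, 0.1% DMSO) to seven half-log compound concentrations, residual AR in lysates was measured by PathScan ELISA (TMB absorbance, 450 nm). Cells were plated at 30,000/well and grown at least 3 days beforehand.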
Background: ELISA stands for enzyme-linked immunosorbent assay.

The structures appear in SMILES notation. Where two headings read alike, the source gives them in different places.

Regarding `Cc1ncsc1-c1ccc([C@H](CO)NC(=O)[C@@H]2C[C@@H](O)CN2C(=O)[C@@H](NC(=O)CN2CCN(CC3CCN(c4ccc(C(=O)N[C@H]5C(C)(C)[C@H](Oc6ccc(C#N)c(Cl)c6)C5(C)C)cn4)CC3)CC2)C(C)(C)C)cc1` [Example 854, N-((1r,3r)-3-(3-chloro-4-cyanophenoxy)-2,2,4,4-tetramethylcyclobutyl)-6-(4-((4-(2-(((S)-1-((2S,4R)-4-hydroxy-2-(((R)-2-hydroxy-1-(4-(4-methylthiazol-5-yl)phenyl)ethyl)carbamoyl)pyrrolidin-1-yl)-3,3-dimethyl-1-oxobutan-2-yl)amino)-2-oxoethyl)piperazin-1-yl)methyl)piperidin-1-yl)nicotinamide], the Dmax is above 71%. For the same compound, the half-maximal degradation concentration (DC50) (VCaP cells, Table 36) was below 50 nM.
For `Cc1ncsc1-c1ccc([C@H](C)NC(=O)[C@@H]2C[C@@H](O)CN2C(=O)[C@@H](NC(=O)COCCN2CCN(c3ccc(C(=O)N[C@H]4C(C)(C)[C@H](Oc5ccc(C#N)c(C(F)(F)F)c5)C4(C)C)cn3)CC2)C(C)(C)C)cc1` [Example 855, N-((1r,3r)-3-(4-cyano-3-(trifluoromethyl)phenoxyl)-2,2,4,4-tetramethylcyclobutyl)-6-(4-(2-(2-(((S)-1-((2S, 4R)-4-hyrdoxy-2-(((S)-1-(4-(4-methylthiazol-5-yl)phenyl)ethyl)carbamoyl)pyrrolidin-1-yl)-3,3-dimethyl-1-oxobutan-2-yl)amino)-2-oxoethoxy)ethyl)piperazin-1-yl) nicotinamide], for the setting “VCaP cells, Table 36”, the DC50 was below 50 nM and the Dmax is above 71%.
For `Cc1ncsc1-c1ccc([C@H](C)NC(=O)[C@@H]2CC(O)CN2C(=O)[C@H](C(C)C)N2Cc3ccc(OCCN4CCN(c5ccc(C(=O)N[C@H]6C(C)(C)[C@H](Oc7ccc(C#N)c(Cl)c7)C6(C)C)cn5)CC4)cc3C2=O)cc1` (stereo partly drawn) [Example 856, N-((1r,3r)-3-(3-chloro-4-cyanophenoxy)-2,2,4,4-tetramethylcyclobutyl)-6-(4-(2-((2-((S)-1-((2S, 4R)-4-hydroxy-2-(((S)-1-(4-(4-methylthiazol-5-yl)phenyl)ethyl)carbamoyl)pyrrolidin-1-yl)-3-methyl-1-oxobutan-2-yl)-3-oxoisoindolin-5-yl)oxy)ethyl)piperazin-1-yl)nicotinamide] the same measures were above 501 nM and below 25%.
Regarding `CC(=O)O[C@@H]1C[C@@H](C(=O)N[C@@H](C)c2ccc(-c3scnc3C)cc2)N(C(=O)[C@H](C(C)C)N2Cc3ccc(OCCN4CCN(c5ccc(C(=O)N[C@H]6C(C)(C)[C@H](Oc7ccc(C#N)c(Cl)c7)C6(C)C)cn5)CC4)cc3C2=O)C1` [Example 857, (3R,5S)-1-((S)-2-(6-(2-(4-(5-(((1r,3r)-3-(3-chloro-4-cyanophenoxy)-2,2,4,4-tetramethylcyclobutyl)carbamoyl)pyridin-2-yl)piperazin-1-yl)ethoxy)-1-oxoisoindolin-2-yl)-3-methylbutanoyl)-5-(((S)-1-(4-(4-methylthiazol-5-yl)phenyl)ethyl)carbamoyl)pyrrolidin-3-yl acetate], the Dmax is below 25%. In addition, under “VCaP cells, Table 36”, the 50% degradation concentration (DC50) is above 501 nM.
For `Cc1ncsc1-c1ccc([C@H](C)NC(=O)[C@H]2C[C@H](O)CN2C(=O)[C@@H](NC(=O)CN2C3CCC2CN(CCCCc2ccc(C(=O)N[C@H]4C(C)(C)[C@H](Oc5ccc(C#N)c(Cl)c5)C4(C)C)cc2)C3)C(C)(C)C)cc1` [Example 858, (2R,4S)-1-((2S)-2-(2-(3-(4-(4-(((1r,3r)-3-(3-chloro-4-cyanophenoxy)-2,2,4,4-tetramethylcyclobutyl)carbamoyl)phenyl)butyl)-3,8-diazabicyclo[3.2.1]octan-8-yl)acetamido)-3,3-dimethylbutanoyl)-4-hydroxy-N-((S)-1-(4-(4-methylthiazol-5-yl)phenyl)ethyl) pyrrolidine-2-carboxamide] the same measures were below 25% and above 501 nM.
Consider `Cc1ncsc1-c1ccc([C@H](CO)NC(=O)[C@@H]2C[C@@H](O)CN2C(=O)[C@@H](NC(=O)CN2CCN(CCCCc3ccc(C(=O)N[C@H]4C(C)(C)[C@H](Oc5ccc(C#N)c(Cl)c5)C4(C)C)cc3)CC2)C(C)(C)C)cc1` [Example 859, (2S,4R)-1-((S)-2-(2-(4-(4-(4-(((1r,3r)-3-(3-chloro-4-cyanophenoxy)-2,2,4,4-tetramethylcyclobutyl)carbamoyl)phenyl)butyl)piperazin-1-yl)acetamido)-3,3-dimethylbutanoyl)-4-hydroxy-N-((R)-2-hydroxy-1-(4-(4-methylthiazol-5-yl)phenyl)ethyl) pyrrolidine-2-carboxamide], for which, under “VCaP cells, Table 36”, the 50% degradation concentration (DC50) is below 50 nM and the maximal degradation (Dmax) was above 71%.
Turning to `Cc1ncsc1-c1ccc([C@H](C)NC(=O)[C@@H]2C[C@@H](O)CN2C(=O)[C@@H](NC(=O)CN[C@H]2C[C@H](N3CCN(c4ccc(C(=O)N[C@H]5C(C)(C)[C@H](Oc6ccc(C#N)c(Cl)c6)C5(C)C)cn4)CC3)C2)C(C)(C)C)cc1` [Example 860, N-((1r,3R)-3-(3-chloro-4-cyanophenoxy)-2,2,4,4-tetramethylcyclobutyl)-6-(4-((1S,3R)-3-((2-(((S)-1-((2S,4R)-4-hydroxy-2-(((S)-1-(4-(4-methylthiazol-5-yl)phenyl)ethyl)carbamoyl)pyrrolidin-1-yl)-3,3-dimethyl-1-oxobutan-2-yl)amino)-2-oxoethyl)amino)cyclobutyl)piperazin-1-yl)nicotinamide], the maximal degradation (Dmax) is 51 to 70%. For the same compound, the DC50 (VCaP cells, Table 36) is below 50 nM.
On to `Cc1ncsc1-c1ccc([C@H](C)NC(=O)[C@@H]2C[C@@H](O)CN2C(=O)[C@@H](NC(=O)CN[C@H]2C[C@@H](N3CCN(c4ccc(C(=O)N[C@H]5C(C)(C)[C@H](Oc6ccc(C#N)c(Cl)c6)C5(C)C)cn4)CC3)C2)C(C)(C)C)cc1` [Example 861, N-((1r,3R)-3-(3-chloro-4-cyanophenoxy)-2,2,4,4-tetramethylcyclobutyl)-6-(4-((1R,3S)-3-((2-(((S)-1-((2S,4R)-4-hydroxy-2-(((S)-1-(4-(4-methylthiazol-5-yl)phenyl)ethyl)carbamoyl)pyrrolidin-1-yl)-3,3-dimethyl-1-oxobutan-2-yl)amino)-2-oxoethyl)amino)cyclobutyl)piperazin-1-yl)nicotinamide], for which the greatest degradation seen (Dmax) was in the range of 51 to 70%. In addition, the 50% degradation concentration (DC50) (VCaP cells, Table 36) is below 50 nM.
For the compound `Cc1ncsc1-c1ccc([C@H](C)NC(=O)[C@@H]2C[C@@H](OC(=O)CCC(=O)O)CN2C(=O)[C@@H](NC(=O)COCCN2CCN(c3ccc(C(=O)N[C@H]4C(C)(C)[C@H](Oc5ccc(C#N)c(Cl)c5)C4(C)C)cn3)CC2)C(C)(C)C)cc1` [Example 862, 4-(((3R,5S)-1-((S)-2-(2-(2-(4-(5-(((1r,3r)-3-(3-chloro-4-cyanophenoxy)-2,2,4,4-tetramethylcyclobutyl)carbamoyl)pyridin-2-yl)piperazin-1-yl)ethoxy)acetamido)-3,3-dimethylbutanoyl)-5-(((S)-1-(4-(4-methylthiazol-5-yl)phenyl)ethyl)carbamoyl)pyrrolidin-3-yl)oxy)-4-oxobutanoic acid], for the setting “VCaP cells, Table 36”, the DC50 was below 50 nM and the Dmax is above 71%.
Consider `[2H]C(Nc1ccc(C(=O)N[C@H]2C(C)(C)[C@H](Oc3ccc(C#N)c(Cl)c3)C2(C)C)cc1)C([2H])([2H])C([2H])([2H])C([2H])([2H])C([2H])([2H])OCC(=O)N[C@H](C(=O)N1C[C@H](O)C[C@H]1C(=O)N[C@@H](C)c1ccc(-c2scnc2C)cc1)C(C)(C)C` (stereo partly shown) [Example 863], for which, where the note is “VCaP cells, Table 36”, the 50% degradation concentration (DC50) is below 50 nM and the Dmax was above 71%.
For `C/C(=N\OCCN1CCN(CC(=O)N[C@H](C(=O)N2C[C@H](O)C[C@H]2C(=O)N[C@@H](C)c2ccc(-c3scnc3C)cc2)C(C)(C)C)CC1)c1cc(C(=O)N[C@@H](C)Cn2ccc(-c3ccc(C#N)c(Cl)c3)n2)n[nH]1` [Example 864, N-((S)-1-(3-(3-Chloro-4-cyanophenyl)-1H-pyrazol-1-yl)propan-2-yl)-5-((E)-1-((2-(4-(2-(((S)-1-((2S,4R)-4-hydroxy-2-(((S)-1-(4-(4-methylthiazol-5-yl)phenyl)ethyl)carbamoyl)pyrrolidin-1-yl)-3,3-dimethyl-1-oxobutan-2-yl)amino)-2-oxoethyl)piperazin-1-yl)ethoxy)imino)ethyl)-1H-pyrazole-3-carboxamide] the same measures were below 50 nM and below 25%.

As usually defined, the DC50 is the concentration at which degradation of the target reaches its halfway point. One may read the Dmax as the largest share of the target that was removed.

For the origin of these results see patent US11427548B2 (Arvinas Operations, Inc., priority 2015, dated 2022).
